For experiment [1], the target named is T1, rat pituitary GH-RH receptors (Rattus norvegicus, UniProt Q02644).
T1 construct: from tissue; host or cells: rat anterior pituitary (male Sprague-Dawley), crude membranes
T1 sequence (Q02644 23-464): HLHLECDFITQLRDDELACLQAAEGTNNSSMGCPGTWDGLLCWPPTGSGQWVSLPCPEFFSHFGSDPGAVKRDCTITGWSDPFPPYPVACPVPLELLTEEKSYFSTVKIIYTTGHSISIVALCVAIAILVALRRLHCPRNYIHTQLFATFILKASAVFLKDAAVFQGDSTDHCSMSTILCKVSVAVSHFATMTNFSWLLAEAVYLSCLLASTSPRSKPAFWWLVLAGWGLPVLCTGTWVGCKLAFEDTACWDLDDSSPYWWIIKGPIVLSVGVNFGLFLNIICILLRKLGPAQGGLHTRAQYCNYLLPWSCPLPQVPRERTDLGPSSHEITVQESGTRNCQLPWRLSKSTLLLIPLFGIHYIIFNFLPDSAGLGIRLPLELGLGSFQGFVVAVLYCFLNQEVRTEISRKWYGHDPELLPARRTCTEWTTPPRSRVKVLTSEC
The experiment is described as follows: GH-RH binding assay, competitive binding on rat anterior pituitary membrane homogenates. As to the method: GH-RH Binding Assay. A sensitive radioreceptor binding assay was developed to determine the binding characteristics of the antagonists of GH-RH (G. Halmos, A. V. Schally et al., Receptor 3, 87-97, 1993), hereby incorporated by reference. The assay is based on binding of labelled [His^1,Nle^27 ]hGH-RH(1-32)NH2 to rat anterior pituitary membrane homogenates. Iodinated derivatives of [His^1,Nle^27 ]hGH-RH(1-32)NH2 are prepared by the chloramine-T method (F. C. Greenwood et al., Biochemistry 89:114-123, 1963), hereby incorporated by reference. Pituitaries from male Sprague-Dawley rats (250-300 g) are used to prepare crude membranes. For saturation binding analyses, membrane homogenates are incubated with at least 6 concentrations of [His^1,^25 I-Tyr^10,Nle^27 ]hGH-RH(1-32)NH2, ranging from 0.005 to 0.35 nM in the presence or absence of excess unlabelled peptide (1 μM). The pellet is counted for radioactivity in a y-counter. The affinities of the antagonist peptides tested to rat pituitary GH-RH receptors are determined in competitive binding experiments. The final binding affinities are estimated by Ki (dissociation constant of the inhibitor-receptor complex) and are determined by the Ligand PC computer program of Munson and Rodbard as modified by McPherson. Relative affinities compared to [Ac-Tyr^1,D-Arg^2 ]hGH-RH(1-29)NH2, the Standard antagonist, are calculated as the ratio of Ki of the tested GH-RH antagonist to the Ki of the Standard antagonist.

Experiment [2] relates to hGH-RH(1-29)NH2 induced GH release. Nature of the experiment: Superfused rat pituitary system: inhibition of hGH-RH(1-29)NH2 induced GH release. In kind it is cell-based. Particulars: dose 100 nM. As to the method:
Superfused Rat Pituitary System. The analogues were tested in vitro in a test described earlier (S. Vigh and A. V. Schally, Peptides 5:241-[…], 1984) with modification ([…] and […]. 90:2146-2149, 1993). Briefly, the cells are preincubated with peptides for 9 minutes (3 mL) at various concentrations. Immediately after the incubation, 1 nM hGH-RH(1-29)NH2 is administered for 3 minutes (1 mL) [0 minute response]. To check the duration of the antagonistic effect of the analogue, 1 nM hGH-RH(1-29)NH2 is applied 30, 60, 90, and 120 minutes later for 3 minutes [30, 60, 90, 120 min responses]. Net integral values of the GH responses are evaluated. GH responses are compared to and expressed as percent of the original GH response induced by 1 nM GH-RH(1-29)NH2. The effect of the new antagonists are compared to that of [Ac-[…] ]hGH-RH(1-29)NH2, the "Standard antagonist". Growth Hormone Radio-immunoassay. Rat GH levels in aliquots of undiluted and diluted superfusion samples were measured by double-antibody radioimmunoassay using materials supplied by the National Hormone and Pituitary Program, Baltimore, Md. The results of RIA were analyzed with a computer program developed in our institute (V. Csernus and A. V. Schally, Harwood Academic (Greenstein, B. C. ed., London, pp. 71-109, 1991), hereby incorporated by reference. Inter-assay variation was less than 15% and intra-assay variation was less than 10%.

The test system is the same in experiment [3]. The experiment is described as follows: In vivo test: serum GH levels in rats pretreated with GH-RH antagonists before hGH-RH(1-29)NH2. The arrangement: species or system Sprague-Dawley rats. As for the experimental part: In Vivo Tests. Adult male Sprague-Dawley rats are anesthetized with pentobarbital (6 mg/100 g b.w., i.p.). Blood samples are taken from the jugular vein 30 min after the injection of pentobarbital. One group of 7 animals receives hGH-RH(1-29)NH2 as control. Other groups of rats are injected with [Ac-Tyr^1,D-Arg^2 ]hGH-RH(1-29)NH2 as Standard antagonist, or with one of the antagonist peptide 30 seconds prior to hGH-RH(1-29)NH2, which is administered at dose of 2-3 μg/kg b.w. Blood samples are taken from the jugular vein 5 and 15 min after the injection of antagonists. GH levels are measured by RIA. Potencies of the antagonists are calculated by the factorial analysis of Bliss and Marks with 95% confidence limits and are based on the doses of 100 and 400 μg/kg b.w. of the Standard antagonist and 20 and 80 μg/kg b.w. of the antagonists tested. Statistical significance was assessed by Duncan's new multiple range test.

The subject of another experiment is GH release. Particulars: cited from earlier work.

Non-standard residues stand in square brackets, D forms with d. Residues, ends and D or L forms follow the SMILES beside them.

As usually defined, the Ki is a measure of affinity in units of concentration, obtained from inhibition or displacement. Higher therefore signals lower affinity. The compound `CC[C@H](C)[C@H](NC(=O)[C@H](C)NC(=O)[C@H](CC(=O)O)NC(=O)[C@@H](CCCNC(=N)N)NC(=O)[C@H](Cc1ccc(O)cc1)NC(C)=O)C(=O)N[C@@H](Cc1ccccc1)C(=O)N[C@H](C(=O)N[C@@H](CC(N)=O)C(=O)N[C@@H](CO)C(=O)N[C@@H](Cc1ccc(O)cc1)C(=O)N[C@@H](CCCNC(=N)N)C(=O)N[C@@H](CCCCN)C(=O)N[C@H](C(=O)N[C@@H](CC(C)C)C(=O)NCC(=O)N[C@@H](CCC(N)=O)C(=O)N[C@@H](CC(C)C)C(=O)N[C@@H](CO)C(=O)N[C@@H](C)C(=O)N[C@@H](CCCNC(=N)N)C(=O)N[C@@H](CCCCN)C(=O)N[C@@H](CC(C)C)C(=O)N[C@@H](CC(C)C)C(=O)N[C@@H](CCC(N)=O)C(=O)N[C@@H](CC(=O)O)C(=O)N[C@H](C(=O)N[C@@H](CCSC)C(=O)N[C@@H](CO)C(=O)N[C@@H](CCCNC(=N)N)C(N)=O)[C@@H](C)CC)C(C)C)[C@@H](C)O` [Standard antagonist, [Ac-Tyr^1, D-Arg^2]hGH-RH(1-29)NH2, reference compound] (Ac-Y[dR]DAIFTNSYRKVLGQLSARKLLQDIMSR-NH2) yielded a Ki in experiment [1] (competition with labelled [His1,Nle27]hGH-RH(1-32)NH2) of 3.22 ± 0.12 nM. For the same compound, in experiment [1] (ratio of Ki values, Standard = 1), the “R.A. (relative affinity compared to the Standard antagonist)” value turned out to be 1. In experiment [2] (0 min response), the “Inhibition of GH release (%) 0 min” value is reported as 62.1%. Besides, the “Inhibition of GH release (%) 30 min” value in experiment [2] (30 min response) is on record as 2.5%. In experiment [2] (60 min response), the “Inhibition of GH release (%) 60 min” value came out at 19%. Besides, the figures for the “GH Levels” value in experiment [3] (antagonist 100.0 μg/kg intravenously before GH-RH(1-29)NH2) and in experiment [3] (antagonist 400.0 μg/kg intravenously before GH-RH(1-29)NH2) were 738.3 ± 34.7 ng/mL and 439.7 ± 47.3 ng/mL, respectively.
In the case of [AcTyr^1 ]hGH-RH(1-29)NH2, the “in vivo potency over that of GH-RH” value with GH release was “ten fold or more”.

Values taken from patent US5550212A, “Analogues of hGH-RH(1-29)NH2 having antagonistic activity” (The Administrators of the Tulane Educational Fund, priority 1993, dated 1996).
